Data from ChEMBL document CHEMBL1201862, “PubChem BioAssay data set” (2004).
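Cultured in 96-well plates, cells were exposed to test compound for 48 hours across five concentrations. Abbreviation: GI50, concentration required for 50% inhibition of growth.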 The source made the active and inactive calls. Cut-off read from the data, not from the text of the source: active = GI50 up to about 1.1 µM and inactive = higher.

How the values were obtained:
Assay in all cases: DTP human tumour cell line panel, 48 h
ACHN = system: ACHN
CCRF-CEM = system: CCRF-CEM
HL-60 = system: HL-60
HOP-92 = system: HOP-92
Hs-578T = system: Hs-578T
IGROV-1 = system: IGROV-1
M14 = system: M14
MCF7 = system: MCF7
Malme-3M = system: Malme-3M
OVCAR-3 = system: OVCAR-3
OVCAR-5 = system: OVCAR-5
SF-268 = system: SF-268
SF-539 = system: SF-539
SK-MEL-28 = system: SK-MEL-28
SK-OV-3 = system: SK-OV-3
SR = system: SR
SW-620 = system: SW-620
TK-10 = system: TK-10
U-251 = system: U-251
UACC-62 = system: UACC-62

Measured: GI50

C[N+]12CCCCC1C(CN1C(=O)Cc3c4ccccc4c(c4ccccc34)CC1=O)CCC2 (stereo not given)
inactive: ACHN > 100 µM | CCRF-CEM > 100 µM | HL-60 > 100 µM | HOP-92 > 100 µM | Hs-578T > 100 µM | IGROV-1 > 100 µM | M14 > 100 µM | MCF7 > 100 µM | Malme-3M > 100 µM | OVCAR-3 > 100 µM | OVCAR-5 > 100 µM | SF-268 > 100 µM | SF-539 > 100 µM | SK-MEL-28 > 100 µM | SK-OV-3 > 100 µM | SR > 100 µM | SW-620 > 100 µM | TK-10 > 100 µM | U-251 > 100 µM | UACC-62 > 100 µM

CC/C(Cl)=N\OC(=O)Nc1ccc(F)c([N+](=O)[O-])c1
inactive: ACHN 1.92 µM | CCRF-CEM 2.59 µM | HL-60 2.39 µM | HOP-92 5.14 µM | Hs-578T 17.4 µM | IGROV-1 17.9 µM | M14 10.3 µM | MCF7 8.81 µM | Malme-3M 2.13 µM | OVCAR-3 5.08 µM | OVCAR-5 22.7 µM | SF-268 16.9 µM | SF-539 5.32 µM | SK-MEL-28 16.6 µM | SK-OV-3 19.1 µM | SR > 39.5 µM | SW-620 4.15 µM | TK-10 11.6 µM | U-251 21.5 µM | UACC-62 17.3 µM
